Data as given in patent publication US11459324B2, “O-glycoprotein-2-acetamido-2-deoxy-3-D-glycopyranosidase inhibitors” (BIOGEN MA INC., priority 2018, dated 2022).

Target: T1, Recombinant full length human OGA enzyme (Homo sapiens, UniProt O60502)
T1 construct: Recombinant full length human OGA enzyme was purchased from Origene; purchased Origene
T1 sequence (O60502 1-916): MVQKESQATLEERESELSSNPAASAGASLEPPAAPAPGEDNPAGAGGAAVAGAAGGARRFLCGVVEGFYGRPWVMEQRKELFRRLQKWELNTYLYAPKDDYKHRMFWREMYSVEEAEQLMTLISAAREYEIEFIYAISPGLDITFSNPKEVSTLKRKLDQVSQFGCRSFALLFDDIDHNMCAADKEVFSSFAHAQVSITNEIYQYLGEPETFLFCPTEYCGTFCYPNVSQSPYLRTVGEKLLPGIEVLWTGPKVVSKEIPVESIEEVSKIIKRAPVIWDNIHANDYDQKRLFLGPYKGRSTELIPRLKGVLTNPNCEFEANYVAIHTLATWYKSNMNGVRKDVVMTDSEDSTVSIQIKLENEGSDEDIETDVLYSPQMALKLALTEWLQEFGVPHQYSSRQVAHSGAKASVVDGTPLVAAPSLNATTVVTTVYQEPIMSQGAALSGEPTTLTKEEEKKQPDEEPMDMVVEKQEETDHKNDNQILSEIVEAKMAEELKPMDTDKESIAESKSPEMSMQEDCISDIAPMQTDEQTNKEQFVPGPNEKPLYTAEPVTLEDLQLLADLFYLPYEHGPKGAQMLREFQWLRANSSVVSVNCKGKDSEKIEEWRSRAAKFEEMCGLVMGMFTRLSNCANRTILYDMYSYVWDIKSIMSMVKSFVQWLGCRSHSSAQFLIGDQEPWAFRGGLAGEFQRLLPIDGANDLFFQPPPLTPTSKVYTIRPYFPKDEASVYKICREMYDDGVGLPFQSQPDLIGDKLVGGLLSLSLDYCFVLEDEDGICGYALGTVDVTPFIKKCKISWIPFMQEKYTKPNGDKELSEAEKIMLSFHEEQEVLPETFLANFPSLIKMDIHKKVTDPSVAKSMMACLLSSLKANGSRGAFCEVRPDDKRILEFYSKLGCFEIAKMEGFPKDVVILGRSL
Assay: OGA Enzyme Inhibition Biochemical Assay
Conditions: 1 nM OGA, 100 μM 4-MUGlcNAc (Km), pH 6.4, 90 minutes at room temperature, 10-point dose-response from 20 μM
Method: OGA Enzyme Inhibition Biochemical Assay
Recombinant full length human OGA enzyme was purchased from Origene. 4-MUGlCNAc substrate was purchased from Sigma. All other reagents were purchased from Sigma or Fisher. Assay buffer consists of the McIlvaine buffer system, pH 6.4 (0.2M Na2HPO4 mixed with 0.1M citric acid) and 0.01% BSA. Reactions consist of 1 nM OGA, 100 μM 4-MUGlcNAc (Km), and compound in a final volume of 10 μl. Reactions were incubated for 90 minutes at room temperature and quenched with 40 μl of 3M glycine, pH 10 and read on a Perkin Elmer Envision plate reader (Ex: 355 nm/Em: 460 nm). Compounds were tested with a 10-point dose-response starting from 20 μM with a 4-fold dilution. Data was fit using GraphPad Prism using a 4-parameter fit with variable slope.

IC50	SMILES
5.1 nM	CC(=O)Nc1nc(F)c(CN2CC[C@H](Cc3cc(C)ncc3Cl)C2)s1 [Example 3-30, (S)—N-(5-((3-((5-chloro-2-methylpyridin-4-yl)methyl)pyrrolidin-1-yl)methyl)-4-fluorothiazol-2-yl)acetamide]
56 nM	CC(=O)Nc1ncc(CN2CC[C@H](Cc3ccc(F)c(F)c3)C2)s1 (stereo in doubt) [Example 4-26, N-(5-((3-(3,4-difluorobenzyl)pyrrolidin-1-yl)methyl)thiazol-2-yl)acetamide]
55 nM	CC(=O)Nc1ncc(CN2CCCC(Cn3ccnn3)C2)s1 (stereo not shown) [Example 4-20, N-(5-((3-((1H-1,2,3-triazol-1-yl)methyl)piperidin-1-yl)methyl)thiazol-2-yl)acetamide]
< 1 nM	CC(=O)Nc1nc(F)c(CN2C[C@@H](Cc3noc(C)n3)CC[C@@H]2C)s1 [Example 4-16, N-(4-fluoro-5-(((2S,5R)-2-methyl-5-((5-methyl-1,2,4-oxadiazol-3-yl)methyl)piperidin-1-yl)methyl)thiazol-2-yl)acetamide]
660 nM	CC(=O)Nc1ncc(CN2CCCC(Cn3cc(C4CCC4)cn3)C2)s1 (stereo not shown) [Example 4-5, N-(5-((3-((4-cyclobutyl-1H-pyrazol-1-yl)methyl)piperidin-1-yl)methyl)thiazol-2-yl)acetamide]
15 nM	CC(=O)Nc1ncc(CN2CCCC(Cn3cc(C(C)=O)cn3)C2)s1 (stereo not shown) [Example 4-11, N-(5-((3-((4-acetyl-1H-pyrazol-1-yl)methyl)piperidin-1-yl)methyl)thiazol-2-yl)acetamide]
380 nM	CC(=O)Nc1ncc(CN2CCCC(Cn3cc(C(C)C)cn3)C2)s1 (stereo not shown) [Example 4-7, N-(5-((3-((4-isopropyl-1H-pyrazol-1-yl)methyl)piperidin-1-yl)methyl)thiazol-2-yl)acetamide]
970 nM	CCc1cnn(CC2CCCN(Cc3cnc(NC(C)=O)s3)C2)c1 (stereo not shown) [Example 4-2, N-(5-((3-((4-ethyl-1H-pyrazol-1-yl)methyl)piperidin-1-yl)methyl)thiazol-2-yl)acetamide]
360 nM	COc1cnn(CC2CCCN(Cc3cnc(NC(C)=O)s3)C2)c1 (stereo not shown) [Example 4-8, N-(5-((3-((4-methoxy-1H-pyrazol-1-yl)methyl)piperidin-1-yl)methyl)thiazol-2-yl)acetamide]
87 nM	COc1cc(C[C@@H]2C[C@@H](C)N(Cc3sc(NC(C)=O)nc3F)C2)ncn1 [Example 3-43, N-(4-fluoro-5-(((2R,4S)-4-((6-methoxypyrimidin-4-yl)methyl)-2-methylpyrrolidin-1-yl)methyl)thiazol-2-yl)acetamide]
1.9 nM	CC(=O)Nc1ncc(CN2C[C@@H](Cc3noc(C)n3)C[C@@H]2C)s1 [Example 4-13, N-(5-(((2S,4R)-2-methyl-4-((5-methyl-1,2,4-oxadiazol-3-yl)methyl)pyrrolidin-1-yl)methyl)thiazol-2-yl)acetamide]
150 nM	CC(=O)Nc1nc(F)c(CN2C[C@H](Cc3ncc(F)cn3)C[C@@H]2C)s1 [Example 3-40, N-(4-fluoro-5-(((2S,4S)-4-((5-fluoropyrimidin-2-yl)methyl)-2-methylpyrrolidin-1-yl)methyl)thiazol-2-yl)acetamide]
< 1 nM	CC(=O)Nc1nc(F)c(CN2CCC[C@H](Cc3cc(C)nc(C)n3)C2)s1 [Example 3-21, (R)-N-(5-((3-((2,6-dimethylpyrimidin-4-yl)methyl)piperidin-1-yl)methyl)-4-fluorothiazol-2-yl)acetamide]

The remaining lines, values behind:

SMILES	IC50
CC(=O)Nc1ncc(CN2CCCC(Cc3nc(C)nc4ccsc34)C2)s1 (stereo not shown) [Example 1-43, N-(5-((3-((2-methylthieno[3,2-d]pyrimidin-4-yl)methyl)piperidin-1-yl)methyl)thiazol-2-yl)acetamide]	3 nM
COc1ccnc(C[C@H]2CCN(Cc3cnc(NC(C)=O)s3)C2)n1 [Example 3-12, (R)-N-(5-((3-((4-methoxypyrimidin-2-yl)methyl)pyrrolidin-1-yl)methyl)thiazol-2-yl)acetamide]	9 nM
CC(=O)Nc1ncc(CN2CCC[C@@H](Cc3ncc(F)cn3)C2)s1 [Example 2-33, N-[5-[[(3S)-3-[(5-fluoropyrimidin-2-yl)methyl]-1-piperidyl]methyl]thiazol-2-yl]acetamide]	122 nM
CC(=O)N(C)c1ncc(CN2CCC[C@H](Cc3ncc(F)cn3)C2)s1 [Example 3-16, N-[5-[[(3R)-3-[(5-fluoropyrimidin-2-yl)methyl]-1-piperidyl]methyl]thiazol-2-yl]-N-methyl-acetamide]	19 nM
CC(=O)Nc1ncc(CN2CCCC(Cc3cccnc3)C2)s1 (stereo not shown) [Example 1-27, N-(5-((3-(pyridin-3-ylmethyl)piperidin-1-yl)methyl)thiazol-2-yl)acetamide]	11 nM
CC(=O)Nc1ncc(CN2CC(Cc3ncc(F)cn3)CC[C@@H]2C(F)(F)F)s1 (stereo partly shown) [Example 2-50]	270 nM
COc1cc(CC2CCN(Cc3cnc(NC(C)=O)s3)C2)ccn1 (stereo not shown) [Example 1-19, N-(5-((3-((2-methoxypyridin-4-yl)methyl)pyrrolidin-1-yl)methyl)thiazol-2-yl)acetamide]	10 nM
COc1ccc(CC2CCN(Cc3cnc(NC(C)=O)s3)C2)cn1 (stereo not shown) [Example 1-23, N-(5-((3-((6-methoxypyridin-3-yl)methyl)pyrrolidin-1-yl)methyl)thiazol-2-yl)acetamide]	17 nM
CC(=O)Nc1ncc(CN2CC[C@@H](C)[C@@H](Cc3ncc(F)cn3)C2)s1 (single isomer, unassigned) [Example 2-40]	27 nM
CC(=O)Nc1ncc(CN2C[C@H](Cc3ncc(F)cn3)C[C@@H]2C)s1 (single isomer, unassigned) [Example 2-18]	358 nM
CC(=O)Nc1ncc(CN2CCCC(Cc3cscn3)C2)s1 (stereo not shown) [Example 1-38, N-(5-((3-(thiazol-4-ylmethyl)piperidin-1-yl)methyl)thiazol-2-yl)acetamide]	31 nM
CC(=O)Nc1ncc(CN2CCC(C(C)c3ncc(F)cn3)C2)s1 (stereo not shown) [Example 2-36, N-(5-((3-(1-(5-fluoropyrimidin-2-yl)ethyl)pyrrolidin-1-yl)methyl)thiazol-2-yl)acetamide]	1 nM
CC(=O)Nc1ncc(CN2CCCC(Cc3ccccc3)C2)s1 (stereo not shown) [Example 1-28, N-(5-((3-benzylpiperidin-1-yl)methyl)thiazol-2-yl)acetamide]	52 nM
CC(=O)Nc1ncc(CN2CCC[C@H](Cc3ncc(F)c(C)n3)C2)s1 [Example 2-7, (R)-N-(5-((3-((5-fluoro-4-methylpyrimidin-2-yl)methyl)piperidin-1-yl)methyl)thiazol-2-yl)acetamide]	3 nM
COc1ccc(CC2CCN(Cc3cnc(NC(C)=O)s3)C2)cc1 (stereo not shown) [Example 1-15, N-(5-((3-(4-methoxybenzyl)pyrrolidin-1-yl)methyl)thiazol-2-yl)acetamide]	46 nM
CC(=O)Nc1ncc(CN2CCC(F)(Cc3ncc(F)cn3)C2)s1 (stereo not shown) [Example 2-16, N-(5-((3-fluoro-3-((5-fluoropyrimidin-2-yl)methyl)pyrrolidin-1-yl)methyl)thiazol-2-yl)acetamide]	880 nM
CC(=O)Nc1ncc(CN2CCCC(Cc3cc(F)ccn3)C2)s1 (stereo not shown) [Example 1-13, N-(5-((3-((4-fluoropyridin-2-yl)methyl)piperidin-1-yl)methyl)thiazol-2-yl)acetamide]	142 nM
CC(=O)Nc1nc(F)c(CN2CCC[C@H](Cc3ccc(C)nc3)C2)s1 [Example 3-20, (R)-N-(4-fluoro-5-((3-((6-methylpyridin-3-yl)methyl)piperidin-1-yl)methyl)thiazol-2-yl)acetamide]	< 1 nM
COc1cccc(CC2CCN(Cc3cnc(NC(C)=O)s3)C2)c1 (stereo not shown) [Example 1-14, N-(5-((3-(3-methoxybenzyl)pyrrolidin-1-yl)methyl)thiazol-2-yl)acetamide]	22 nM
COc1nc(C[C@H]2CCCN(Cc3cnc(NC(C)=O)s3)C2)ncc1F [Example 2-6, (R)-N-(5-((3-((5-fluoro-4-methoxypyrimidin-2-yl)methyl)piperidin-1-yl)methyl)thiazol-2-yl)acetamide]	8 nM
CC(=O)Nc1ncc(CN2CCCC(Cc3ncc(F)cn3)C2C)s1 (stereo not shown) [Example 2-41, N-(5-((3-((5-fluoropyrimidin-2-yl)methyl)-2-methylpiperidin-1-yl)methyl)thiazol-2-yl)acetamide]	510 nM
